Assays:
[1] = test system: CD4 T cells derived from 6B11-CTLs; assay: Intracellular cytokines of CD4 T cells by flow cytometry; assay type: cell-based, human; settings: 6B11-CTLs co-incubated with peptide-loaded DCs
Method: The anti-idiotype antibody 6B11-CTLs were co-incubated respectively with DCs loading VH CDR3 peptides and DCs without loading. The production of intracellular cytokines in CD4 T cells derived from the anti-idiotype antibody 6B11-CTLs was detected by flow cytometry.

HOC1A cells [2] = assay: 51Cr release assay, specific CTLs against HOC1A cells; assay type: cell-based; settings: for killing of HOC1A cells by peptide-CTLs: CTLs stimulated three periods, 4 hours, effector/target 40:1 to 5:1; for killing effect on HOC1A cells, comparison of antigens: T cells stimulated with single peptide 30 μg/ml, or VH CDR3 15 μg/ml plus VL CDR3 15 μg/ml, or 6B11 40 μg/ml; for killing of HOC1A cells after MHC class I molecule blocking: anti-human MHC class I antibodies 1:20 dilution
Source text: (§1) The freeze-stored autologous lymphocytes were stimulated by DCs loaded with the peptides and KLH, to obtain peptide-specific CTLs (peptide-CTLs). One period consists of 7 days. On Day 3 of every period, 10 U/ml rh IL-2 was supplemented. Finally, peptide-CTLs were obtained after a 3-period stimulation.
(§2) 6B11-CTLs stimulated for one period were harvested and used as reacting cells in cell proliferation assay, ELISA cytokine assay and IFN-γ ELISPOT assay. 6B11-CTLs and peptide-CTLs stimulated for 3 periods were harvested for use in ^51Cr release assay as effector cells.
(§3) 6B11-CTLs and peptide-CTLs stimulated for three periods were used as effector cells. T2 cells, HOC1A cells and HLE cells loaded with corresponding peptides were used as target cells. Standard ^51Cr release assay was carried out for 4 hours. Target cells (1×10^6 cells) were placed into 0.5 ml RPMI 1640 culture medium (containing 5% fetal bovine serum). 100 μCi Na2^51CrO4 was added. The labeling reaction was allowed to continue overnight at 37° C. Then the cells were washed by cold RPMI 1640 culture medium (containing 5% fetal bovine serum) for three times to terminate the labeling reaction. Target cells (5×10^3 cells) were placed into 100 μl culture medium and then mixed with an equal volume of effector cells in a 96-well plate. The ratio of effector/target was set as 40:1, 20:1, 10:1 and 5:1. Spontaneous release wells contained target cells and the culture medium, while the maximal release wells contained target cells and corresponding culture medium containing 1% Triton X-100. The plates were gently spun using a plate centrifuge for 2 minutes and then co-incubated at 37° C. under 5% CO2 for 4 hours. The plates were gently spun again. 100 μl of supernatant per well was transferred to a counting tube and labeled as appropriate. The cpm values were determined by a γ counter. All assays were performed in duplicate. The ratio of cpm values of the spontaneous release well to the maximal release well was <20%. Killing ratio (%)=[(mean cpm value of the experimental wells−mean cpm value of the spontaneous release wells)/(mean cpm value of the maximal release wells−mean cpm value of the spontaneous release wells)]×100
(§4) For further analyzing the above-mentioned killing effect, the target cells were blocked by applying anti-human MHC class I antibodies, for evaluating the effect of CTL epitope peptides. Firstly, the optimal concentration of MHC class I antibodies was determined to be 1:20 dilution (FIG. 9). […] The killing effect were not disturbed by MHC class I antibodies, i.e., unrelated to the effect of CD8 T cells. […] Its killing effect was disturbed by MHC class I antibodies, which was mainly mediated by CD8 T cells (FIG. 10). […] The former was unrelated to CD8 T cells whereas the latter was mediated by CD8 T cells.
For investigating the specificity and effectiveness of the killing effect of T-cell epitope peptides, the following experiments were carried out. T cells were stimulated by VH CDR3 peptide (30 μg/ml, final concentration), VL CDR 3 peptide (30 μg/ml), VH CDR3 peptide (15 μg/ml) and VL CDR3 peptide (15 μg/ml) as well as anti-idiotype antibody 6B11 (40 μg/ml), resulting in corresponding specific CTLs, which were used as effector cells. HOC1A cells were used as target cells for performing ^51Cr release assay, in order to compare the effectiveness of each antigen in stimulating immune responses. […] The killing effect of the specific CTLs obtained by stimulating with the combination of VH CDR3 peptide and VL CDR3 peptide was even stronger, which indicated a synergic effect between them. The killing effect of them was also stronger than that of 6B11-CTLs (FIG. 12). […] Their effects were more accurate than that of anti-idiotype antibody 6B11.

HOC1A cells [3] = assay: Cytokine ELISA of supernatant of CTLs co-incubated with HOC1A cells; assay type: cell-based; settings: CTL:HOC1A 40:1, 48 hours, double-antibody-sandwich ELISA
Method: 6B11-CTLs, VH CDR3-CTLs and VL CDR3-CTLs were mixed with target HOC1A cells in the ratio of 40:1 respectively and co-incubated at 37° C. under 5% CO2 for 48 hours. The supernatant was harvested, and the contents of IL-2, IFN-γ and IL-4 determined by double-antibody-sandwich ELISA. […] VH CDR3 peptide- and VL CDR3 peptide-specific CTLs could also secrete high levels of IL-2 and IFN-γ while the secretion of IL-4 was in a low level, which was in a similar trend as that of the immune response induced by anti-idiotype antibody 6B11. This indicated from a different perspective that VH CDR3 peptide and VL CDR3 peptide were involved in the induction of T cell immune response derived from anti-idiotype antibody 6B11 (FIG. 13).

K562 cells = assay: 51Cr release assay, specific CTLs against K562 cells; assay type: cell-based; settings: non-specific killing
[4] = test system: T2 cells loaded with corresponding peptides; assay: 51Cr release assay, peptide-CTLs against T2 cells loaded with peptide; assay type: cell-based; settings: for killing of T2 cells loaded with the peptide by peptide-CTLs: CTLs stimulated three periods, 4 hours, effector/target 40:1 to 5:1; for killing of peptide-stimulated T2 cells after MHC class I molecule blocking: anti-human MHC class I antibodies 1:20 dilution
Source text: as §1, §2, §3, §4

HLA-A2 = HLA-A2 (Homo sapiens, UniProt P04439, D140Y/D185E/D98H/E176V/E277Q/G131W/G231S/I119V/I121R/I166T/I218V/L300P/L318F/N151K/N90K/P208A/P217A/Q86G/Q94H/R138H/R169H/T345S); assay: T2 cell binding assay (HLA class I expression on T2 cells, confocal microscopy); assay type: cell-based; as to T2 binding: key: +++: high binding capacity; ++: moderate binding capacity; +: low binding capacity
Method: The peptides obtained by […] method and the VH CDR1 and VL CDR2 region peptides were subject to T2 cell binding assay. T2 cells were co-incubated with each peptides in different concentrations (0.3 μg/ml, 3 μg/ml and 30 μg/ml) for 24 hours and then co-incubated with anti-human MHC class I antibodies. The expression profile of HLA class I molecules on the surface of T2 cells was analyzed by confocal microscopy. […] They were synthesized together with the CDR peptides of the anti-idiotype antibody for screening CTL epitope peptides.

| binding capacity in T2 cell binding assay (in words) (HLA-A2; T2 cells co-incubated with peptide 24 hours) | T2 binding (HLA-A2; T2 cells co-incubated with peptide (0.3, 3, 30 μg/ml) 24 hours, HLA class I surface expression) | Sequence | IFN-γ secretion by CD4 T cells [1] | IL-4 level in CD4 T cells [1] | killing of HOC1A cells by peptide-CTLs (HOC1A cells [2]) | killing effect on HOC1A cells, comparison of antigens (HOC1A cells [2]) | killing of HOC1A cells after MHC class I molecule blocking (HOC1A cells [2]) | IFN-γ secretion by CTLs (HOC1A cells [3]) | IL-2 secretion by CTLs (HOC1A cells [3]) | IL-4 secretion by CTLs (HOC1A cells [3]) | killing of K562 cells by specific CTLs (K562 cells) | killing of T2 cells loaded with the peptide by peptide-CTLs [4] | killing of peptide-stimulated T2 cells after MHC class I molecule blocking [4] |
| --- | --- | --- | --- | --- | --- | --- | --- | --- | --- | --- | --- | --- | --- |
| – | – | IALITTKIAWYFDV (VH CDR3 region peptide) [VH CDR3 peptide] | high level | low level | could kill | could kill | could still kill | high levels | high levels | low level | could kill | could kill | could still kill |
| moderate binding capacity | ++ | SQSTHFPYT (VL CDR3 region peptide) | – | – | could also kill | could kill | significantly inhibited | high levels | high levels | low level | could not kill | could also kill | significantly inhibited |

— patent publication US8110654B2, “T cell epitope peptides of ovarian cancer anti-idiotypic antibody 6B11 and use thereof” (Peking University People;s Hospital, priority 2006, dated 2012)
